Read-outs that look alike come from different tables or passages of the source.

One assay deals with A375. The assay can be described thus: SRB cell growth inhibition (cytotoxicity) assay. Format: cell-based, human. Conditions: Homo sapiens, A-375, 48 h, SRB.
In the next assay the test system is PPC-1. The assay can be described thus: cells. Conditions: Homo sapiens, PPC-1, 96 h.
Another assay relates to LNCaP. Kind of assay: cells. Conditions: Homo sapiens, 96 h.
The test system of the next assay is PC-3. The assay can be described thus: cells. Conditions: Homo sapiens, PC-3, 96 h. The source says:
(§1) The only compounds which belong to the invention are the ones falling under the scope of formula (XI).
Cells were stained with SRB solution.
Cells. […] Cells between the third and fifth passages were used for experiments.
Cell growth inhibition studies. […] Cells were stained with sulphorhodamine B (SRB) solution.

In the next assay the test system is DU 145. Kind of assay: cells. The note with it: Homo sapiens, DU-145, 96 h.
A further assay concerns WM-164. The assay can be described thus: SRB cell growth inhibition (cytotoxicity) assay. It counts as cell-based, human. Conditions: Homo sapiens, 48 h, SRB.
The subject of another assay is B16-F1. Kind of assay: SRB cell growth inhibition (cytotoxicity) assay. It counts as cell-based, mouse. Conditions: Mus musculus, 48 h, SRB.
Source text: as §1

Setting [1] is: A375 melanoma cells, read-out: IC50 ± SEM (nM) A375.
Setting [2] is: read-out: IC50 ± SEM (nM), PPC-1.
[3] abbreviates: read-out: IC50 ± SEM (nM), LNCaP.
[4] abbreviates: read-out: IC50 ± SEM (nM), PC-3.
Setting [5] is: read-out: IC50 ± SEM (nM) Du 145.
Where [6] appears, read: WM164 melanoma cells, read-out: IC50 ± SEM (nM) WM164.
[7] abbreviates: B16-F1 melanoma cells, read-out: IC50 ± SEM (nM) B16-F1.
[8] abbreviates: Table 11, read-out: IC50 (nM), A375.
The mark [9] stands for this setting: WM164, Tables 11, 12, read-out: IC50 (nM), WM164.
Where [10] appears, read: B16-F1, Table 11, read-out: IC50 (nM), B16-F1.

As to `COc1cc(C(=O)c2cn(S(=O)(=O)c3ccccc3)c(-c3ccccc3C(F)(F)F)n2)cc(OC)c1OC` [11ia, (1-(phenylsulfonyl)-2-(2-(trifluoromethyl)phenyl)-1H-imidazol-4-yl)(3,4,5-trimethoxyphenyl)methanone], the IC50 in the assay on A375 (setting [1]), in the assay with PPC-1 (setting [2]), with LNCaP (setting [3]), in the assay on PC-3 (setting [4]), in the assay on DU 145 (setting [5]) and in the assay with WM-164 (setting [6]) was greater than 10000 nM throughout. The IC50 (as a rule, the concentration needed to halve the response being measured) in the assay on B16-F1 (setting [7]) was greater than 10000 nM.

On to `O=C(c1ccc(F)cc1)c1cn(S(=O)(=O)c2ccccc2)c(-c2ccccc2C(F)(F)F)n1` [11ib, (1-(phenylsulfonyl)-2-(2-(trifluoromethyl)phenyl)-1H-imidazol-4-yl)(4-fluorophenyl)methanone], for which the IC50 in the assay on A375 (setting [1]), in the assay with PPC-1 (setting [2]), with LNCaP (setting [3]), in the assay on PC-3 (setting [4]), in the assay on DU 145 (setting [5]) and in the assay with WM-164 (setting [6]) was greater than 10000 nM each time. The 50% inhibitory concentration (IC50) in the assay with B16-F1 (setting [7]) was greater than 10000 nM.

Turning to `COc1ccc(C(=O)c2c[nH]c(-c3ccccc3)n2)cc1` [12ab, (4-methoxyphenyl)(2-phenyl-1H-imidazol-4-yl)methanone], the IC50 with A375 (setting [8]) is greater than 10000 nM; with PPC-1 (read-out: IC50 (nM), PPC-1), greater than 10000 nM; in the assay with LNCaP (read-out: IC50 (nM), LNCaP), greater than 10000 nM; with PC-3 (read-out: IC50 (nM), PC-3), greater than 10000 nM; in the assay with DU 145 (read-out: IC50 (nM), Du 145) it was greater than 10000 nM; with WM-164 (setting [9]) it was greater than 10000 nM. Also, the IC50 with B16-F1 (setting [10]) was greater than 10000 nM.

As for `COc1cccc(C(=O)c2c[nH]c(-c3ccccc3)n2)c1` [12ac, (3-methoxyphenyl)(2-phenyl-1H-imidazol-4-yl)methanone], the IC50 was greater than 10000 nM in the assay on A375 (setting [8]); greater than 10000 nM in the assay with PPC-1 (read-out: IC50 (nM), PPC-1); greater than 10000 nM with LNCaP (read-out: IC50 (nM), LNCaP); greater than 10000 nM with PC-3 (read-out: IC50 (nM), PC-3); greater than 10000 nM in the assay on DU 145 (read-out: IC50 (nM), Du 145); greater than 10000 nM in the assay with WM-164 (setting [9]). The IC50 in the assay on B16-F1 (setting [10]) was greater than 10000 nM.

Consider `COc1cc(OC)cc(C(=O)c2c[nH]c(-c3ccccc3)n2)c1` [12ad, (3,5-dimethoxyphenyl)(2-phenyl-1 H-imidazol-4-yl)methanone], for which the IC50 came to 2800 nM with A375 (setting [8]); 2130 nM with PPC-1 (read-out: IC50 (nM), PPC-1); 3610 nM with LNCaP (read-out: IC50 (nM), LNCaP); 3270 nM in the assay on PC-3 (read-out: IC50 (nM), PC-3); 2590 nM in the assay on DU 145 (read-out: IC50 (nM), Du 145); 2100 nM with WM-164 (setting [9]). The IC50 in the assay on B16-F1 (setting [10]) is 5400 nM.

With `O=C(c1ccc(F)cc1)c1c[nH]c(-c2ccccc2)n1` [12af, (4-fluorophenyl)(2-phenyl-1H-imidazol-4-yl)methanone], the IC50 in the assay with A375 (setting [8]) amounted to 580 nM; in the assay with PPC-1 (read-out: IC50 (nM), PPC-1) it was 575 nM; in the assay with LNCaP (read-out: IC50 (nM), LNCaP), 613 nM; in the assay with PC-3 (read-out: IC50 (nM), PC-3) it was 2200 nM; in the assay with DU 145 (read-out: IC50 (nM), Du 145) it was 846 nM; in the assay on WM-164 (setting [9]) it was 630 nM. Also, the IC50 with B16-F1 (setting [10]) was 930 nM.

For the molecule `Cc1ccc(C(=O)c2c[nH]c(-c3ccccc3)n2)cc1` [12ah, (2-phenyl-1H-imidazol-4-yl)(p-tolyl)methanone], the IC50 in the assay with A375 (setting [8]) is greater than 10000 nM; in the assay on PPC-1 (read-out: IC50 (nM), PPC-1), greater than 10000 nM; with LNCaP (read-out: IC50 (nM), LNCaP), greater than 10000 nM; in the assay with PC-3 (read-out: IC50 (nM), PC-3), greater than 10000 nM; in the assay with DU 145 (read-out: IC50 (nM), Du 145), greater than 10000 nM; in the assay with WM-164 (setting [9]), greater than 10000 nM. Also, the IC50 in the assay with B16-F1 (setting [10]) is greater than 10000 nM.

In the case of `Cc1cccc(C(=O)c2c[nH]c(-c3ccccc3)n2)c1` [12ai, (2-phenyl-1H-imidazol-4-yl)(m-tolyl)methanone], the IC50 was greater than 10000 nM in the assay on A375 (setting [8]); greater than 10000 nM with PPC-1 (read-out: IC50 (nM), PPC-1); greater than 10000 nM in the assay on LNCaP (read-out: IC50 (nM), LNCaP); greater than 10000 nM in the assay on PC-3 (read-out: IC50 (nM), PC-3); greater than 10000 nM in the assay with DU 145 (read-out: IC50 (nM), Du 145); greater than 10000 nM in the assay on WM-164 (setting [9]). For the same molecule, in the assay with B16-F1 (setting [10]), the IC50 was greater than 10000 nM.

For the molecule `COc1ccc(-c2nc(C(=O)c3ccc(F)cc3)cn2C)cc1` [12cba, (4-fluorophenyl)(2-(4-methoxyphenyl)-1-methyl-1H-imidazol-4-yl)methanone], the concentration for half-maximal inhibition (IC50) in the assay on A375 (setting [1]), with PPC-1 (setting [2]), with LNCaP (setting [3]), in the assay with PC-3 (setting [4]), with DU 145 (setting [5]) and in the assay on WM-164 (setting [6]) was greater than 10000 nM in each case. Further, in the assay on B16-F1 (setting [7]), the IC50 is greater than 10000 nM.

Source of the values: patent EP2608671B1, “COMPOUNDS FOR TREATMENT OF CANCER” (Gtx, Inc., priority 2010, dated 2012).
